The text below walks through data of patent publication US11970452B2, “Modulators of mas-related G-protein receptor X2 and related products and methods” (Escient Pharmaceuticals, Inc., priority 2020, dated 2024).

In one assay the test system is Human LAD2 cells. Put plainly: Mast Cell Beta-Hexosaminidase Release Assay (versus 500 nM Cortistatin-14). Particulars: 500 nM Cortistatin-14 agonist, read-out: MRGPR2 Antagonist Activity. Format: cell-based. On the procedure: Human LAD2 cells (NIH) were maintained in an incubator at 37° C. with 5% CO2 and cultured in StemPro-34 serum-free media (Gibco 10639011) supplemented with 2 mM L-glutamine, 100 U/ml penicillin, […] streptomycin and 100 ng/ml SCF (Invitrogen PEP0860), at a concentration of 2-5×10^5 cells/mL, with hemidepletion every 1-2 weeks.
Cells were transferred to SCF-Free medium at 2.5×10^5 cells/mL and kept in an incubator overnight. On the day of the assay, cells were washed twice in Assay Buffer (final concentrations 10 mM HEPES, 137 mM NaCl, 5.6 mM D-glucose, 2.7 mM KCl, 1 mM MgCl, 1.8 mM CaCl2, 0.4 mM Na2HPO4.7H2O, 0.04% BSA, pH=7.4) and plated in a 96-well v-bottom plate at 20,000 cells per well in 80 μL Assay Buffer. Antagonist compounds solubilized at 10 mM in DMSO were diluted in Assay Buffer to 10× final desired concentrations as a 10-point curve (10 μM final top concentration with 1:3 serial dilutions) and 10 μL added per well. Plates were then incubated for 1 hour at 37° C. Agonists were diluted in Assay Buffer to 10× desired concentrations and 10 μL of the appropriate agonist added to each well. The final concentration of Cortistatin-14 (Tocris 3374) used in antagonist assays was 500 nM. Final concentrations of DMSO were kept consistent across the plate. Plates were then incubated in a warm air oven for 30 minutes at 37° C., followed by centrifugation at 4° C. for 5 minutes at 450×g. 50 μL supernatant from each well was then transferred to a 96-well flat bottom plate containing 100 μL substrate solution per well (3.5 mg/mL p-Nitrophenyl-N-acetyl-β-D-glucosaminide (Sigma 487052) in Citrate Buffer containing a final concentration of 40 mM Citric Acid, 20 mM Na2HPO4.7H2O, pH=4.5). To the cell pellets left in the remaining assay buffer, 150 μL 0.1% Triton-X-100 was then added to each well, resuspended by pipetting up and down, and 50 μL cell lysates transferred to a second 96-well flat bottom plate containing 100 μL substrate solution per well. Plates containing transferred supernatant and cell lysates were then incubated in a warm air oven for 90 minutes at 37° C. After incubation, 50 μL of 400 mM Glycine buffer (pH 10.7) was added into each well and the plate was read on a Molecular Devices SpectraMax iD5 plate reader (absorbance at 405 nm with reference filter at 620 nm). After background subtraction, the percentage degranulation (percent beta-hexosaminidase release) was calculated as 100×(supernatant values)/(supernatant+lysate values), followed by analysis using GraphPad Prism software to calculate an IC50 value for each compound.
(§1) The activity ranges are denoted as follows: “+++++” denotes antagonist activity <100 nM; “++++” denotes antagonist activity between 100 and 500 nM; “+++” denotes activity between 501 and 1000 nM; “++” denotes activity between 1001 and 2500 nM; and “+” denotes activity >2500 nM

A further assay concerns the target T1, human MRGPRX2 (Homo sapiens, UniProt Q96LB1).
T1 construct: expressed in transfected cells
T1 sequence (Q96LB1 1-330): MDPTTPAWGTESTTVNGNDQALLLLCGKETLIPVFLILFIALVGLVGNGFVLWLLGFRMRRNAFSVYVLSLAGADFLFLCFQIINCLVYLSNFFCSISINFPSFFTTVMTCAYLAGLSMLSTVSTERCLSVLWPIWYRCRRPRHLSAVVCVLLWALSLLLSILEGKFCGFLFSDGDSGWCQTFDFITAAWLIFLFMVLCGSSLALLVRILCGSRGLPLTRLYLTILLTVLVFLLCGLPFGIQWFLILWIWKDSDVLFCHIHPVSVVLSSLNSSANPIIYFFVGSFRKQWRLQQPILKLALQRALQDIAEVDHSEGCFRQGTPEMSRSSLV
Put plainly: MRGPRX2 activity: IP-One HTRF antagonist assay versus 0.3 uM Cortistatin 14. Format: cell-based. The settings on record: CHO cells expressing human MRGPRX2; IP-1 HTRF; versus 0.3 uM Cortistatin 14 agonist; read-out: MRGPR2 Antagonist Activity. On the procedure:
CHO cells stably transfected to express human MRGPRX2 were maintained in an incubator at 37° C. with 5% CO2 and grown in F12 (HAM) media with 10% fetal bovine serum (FBS), 1% Glutamax, 1% penicillin/streptomycin, 800 μg/mL Geneticin (G418), and 300 μg/mL Hygromycin B.
Cells were plated in a […] assay plate at 20,000 cells per well in 12 μL of Opti-MEM and kept in an incubator overnight. On the day of the assay, compounds solubilized at 10 mM in DMSO were added as a 10-point curve (30 uM final top concentration with 1:3 serial dilutions) using a Tecan D300E digital dispenser. Agonists were diluted in assay buffer (final concentrations of 5.7 mM Tris-HCl, 43 mM NaCl, 50 mM LiCl, pH=8) and 2 μL of the agonist Cortistatin 14 (CPC Scientific, catalog CORT-002) are added to each well. Final concentrations of agonists were 0.3 μM Cortistatin. Final concentrations of DMSO were kept consistent across the plate. Plates were incubated in the dark for 1 h at 37° C. and then for 1 h at room temperature. IP-1 standards and HTRF detection reagents were added according to the IP-One-Gq Kit purchased from Cisbio (part number 62IPAPEJ) and incubated in the dark for 1 h at room temperature. The plate was read on a Molecular Devices SpectraMax iD5 plate reader. The HTRF ratio was calculated from the raw data and graphed using GraphPad Prism to calculate an IC50 value for each compound.
as §1
For orientation: Time-resolved FRET reads energy transfer from a long-lived donor to a nearby acceptor.

Bounds are passed on as bounds.

Take `O=C(N[C@H]1CC[C@@H](Nc2cc(C(F)(F)F)nc3ccc(F)cc23)CC1)c1ccc(F)cc1` [1-4, 4-fluoro-N-[(1s,4s)-4-{[6-fluoro-2-(trifluoromethyl)quinolin-4-yl]amino}cyclohexyl]benzamide]: the IC50 in the assay on Human LAD2 cells was in the range of 100 to 500 nM.
As for `O=C(N[C@H]1CC[C@@H](Nc2cc(C(F)(F)F)nc3ccc(Cl)cc23)CC1)c1ccc(F)cc1` [1-5, 4-fluoro-N-[(1s,4s)-4-{[6-chloro-2-(trifluoromethyl)quinolin-4-yl]amino}cyclohexyl]benzamide], the IC50 in the assay on Human LAD2 cells fell in the range of 100 to 500 nM.
On the same count and under the same terms, in the case of `O=C(N[C@H]1CC[C@@H](Nc2nc(C(F)(F)F)nc3ccccc23)CC1)c1ccc(F)cc1` [1-7, 4-fluoro-N-[(1s,4s)-4-{[2-(trifluoromethyl)quinazolin-4-yl]amino}cyclohexyl]benzamide] it was 501 to 1000 nM; in that of `O=C(N[C@H]1CC[C@@H](Nc2cc(C(F)(F)F)nc3ccccc23)CC1)c1ccc(Cl)cc1` [3-10], 100 to 500 nM.
For the compound `CN(C)c1ccc(C(=O)N[C@H]2CC[C@@H](Nc3cc(C(F)(F)F)nc4ccccc34)CC2)cc1` [3-25], the IC50 on human MRGPRX2 and in the assay on Human LAD2 cells was 100 to 500 nM each time.
`O=C(N[C@H]1CC[C@@H](Nc2cc(C(F)(F)F)nc3ccccc23)CC1)c1ccccc1` [3-30]: the IC50 fell in the range of 100 to 500 nM on human MRGPRX2 and 501 to 1000 nM in the assay on Human LAD2 cells.
The like results for `CC(=O)Nc1cccc(C(=O)N[C@H]2CC[C@@H](Nc3cc(C(F)(F)F)nc4ccc(Cl)cc34)CC2)c1` [4-7] were, in that order, less than 100 nM and 100 to 500 nM.
Regarding `CNc1ccc(C(=O)N[C@H]2CC[C@@H](Nc3cc(C(F)(F)F)nc4ccc(Cl)cc34)CC2)cc1` [4-9], in the assay on Human LAD2 cells, the IC50 is less than 100 nM.
On the same count and under the same terms, with `O=C(N[C@H]1CC[C@@H](Nc2cc(C(F)(F)F)nc3ccc(Cl)cc23)CC1)c1ccnc2[nH]ccc12` [4-139] the figure was less than 100 nM.
Same read-out and setting: in the case of `N#Cc1cccc(C(=O)N[C@H]2CC[C@@H](Nc3nc(C(F)(F)F)nc4ccccc34)CC2)c1` [4-288] it was 501 to 1000 nM.
